Measured values as given in patent publication US6140368A, “Naphthols useful in antiviral methods” (The Regents of the University of California, priority 1998, dated 2000).
Where two headings read alike, the source gives them in different places.

How the values were obtained:
[1] = biological target: HIV reverse transcriptase (Human immunodeficiency virus type 1 group M subtype B, UniProt P03366); assay: Reverse transcriptase scintillation proximity assay (Example 4, Table 2); type: biochemical; details: for IC50: read-out: IC50 (RT activity); for remaining activity at 10 µM: 0.05 h, read-out: % RT activity remaining at 10 μM
Summary of the method: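 Purified RT with biotinylated 17mer/50mer RNA-DNA template-primer (39 nm), pH 8.0 Tris with 10 mM MgCl2, 60 mM KCl, dNTPs plus tritiated dTTP; inhibitor preincubated 10 min at 37 °C before enzyme, reaction 3 min. Incorporation read by streptavidin SPA counting.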

HIV integrase [2] = biological target: T1, HIV integrase (Human immunodeficiency virus type 1 group M subtype B, UniProt P04585); assay: biochemical
HIV integrase [3] = biological target: T1, HIV integrase; assay: biochemical; remark: listed apart in the source
HIV = assay: Cell-based anti-HIV (XTT) assay (National Institutes of Health); details: run by the National Institutes of Health
Source text: The anti-viral evaluations branch of the National Institutes of Health also ran cell-based anti-HIV (XTT) assays and reverse transcriptase (RT) assays on a number of the novel compounds. […] These were: 31, 32, 35, 36, 53, 54, 57, 58, 91, 99, and 103.

[4] = read-out: Inhibition of 3' processing activity (IC50)
[5] = read-out: Inhibition of strand transfer (IC50)
[6] = 10 μM inhibitor, relative to dimethyl sulfoxide = 100%
[7] = Inhibition of 3' processing activity (IC50)
[8] = Inhibition of strand transfer (IC50)

Row | Structure (SMILES) | IC50 [1] [µM] | IC50 (HIV integrase [2]; [4]) [µM] | IC50 (HIV integrase [3]; [5]) [µM] | conclusion of cell-based anti-HIV (XTT) assays and reverse transcriptase (RT) assays (HIV) | remaining activity at 10 µM [1, 6] [%] | IC50 (HIV integrase [2]; [7]) [µM] | IC50 (HIV integrase [3]; [8]) [µM] | remaining activity at 10 µM [1] [%]
1 | O=C(Nc1ccc2c(O)c(N=Nc3ccccc3)c(S(=O)(=O)O)cc2c1)Nc1ccc2c(O)c(N=Nc3ccccc3)c(S(=O)(=O)O)cc2c1 [Compound 4, calcomine orange, reference compound] | 1.5 | 2 | 2 | – | – | – | – | –
2 | O=C(Nc1ccc2c(O)c(N=Nc3ccc(C(=O)O)cc3)c(S(=O)(=O)O)cc2c1)Nc1ccc2c(O)c(N=Nc3ccc(C(=O)O)cc3)c(S(=O)(=O)O)cc2c1 [Compound 31] | 0.39 | 0.4 | 0.7 | active or moderately active | – | – | – | –
3 | O=C(O)Cc1ccc(N=Nc2c(S(=O)(=O)O)cc3cc(NC(=O)Nc4ccc5c(O)c(N=Nc6ccc(CC(=O)O)cc6)c(S(=O)(=O)O)cc5c4)ccc3c2O)cc1 [Compound 32] | 0.5 | 2 | 0.7 | active or moderately active | – | – | – | –
4 | O=C(O)CC(C(=O)O)c1ccc(N=Nc2c(S(=O)(=O)O)cc3cc(NC(=O)Nc4ccc5c(O)c(N=Nc6ccc(C(CC(=O)O)C(=O)O)cc6)c(S(=O)(=O)O)cc5c4)ccc3c2O)cc1 (centres unmarked) [Compound 33] | 0.5 | 0.3 | 0.6 | – | – | – | – | –
5 | O=C(Nc1ccc2c(O)c(N=Nc3cc(C(=O)O)ccc3C(=O)O)c(S(=O)(=O)O)cc2c1)Nc1ccc2c(O)c(N=Nc3cc(C(=O)O)ccc3C(=O)O)c(S(=O)(=O)O)cc2c1 [Compound 35] | 0.5 | 0.8 | 2 | active or moderately active | – | – | – | –
6 | O=C(O)CCCc1ccc(N=Nc2c(S(=O)(=O)O)cc3cc(NC(=O)Nc4ccc5c(O)c(N=Nc6ccc(CCCC(=O)O)cc6)c(S(=O)(=O)O)cc5c4)ccc3c2O)cc1 [Compound 36] | 0.5 | 0.8 | 1 | active or moderately active | – | – | – | –
7 | O=C(Nc1ccc2c(O)c(N=Nc3cnc4ccccc4c3)c(S(=O)(=O)O)cc2c1)Nc1ccc2c(O)c(N=Nc3cnc4ccccc4c3)c(S(=O)(=O)O)cc2c1 [Compound 37] | – | > 3 | > 3 | – | 16 | – | – | –
8 | COc1cc(N=Nc2c(S(=O)(=O)O)cc3cc(NC(=O)Nc4ccc5c(O)c(N=Nc6cc(OC)cc(OC)c6)c(S(=O)(=O)O)cc5c4)ccc3c2O)cc(OC)c1 [Compound 38] | – | > 3 | > 3 | – | 47 | – | – | –
9 | COc1ccc(N=Nc2c(S(=O)(=O)O)cc3cc(NC(=O)Nc4ccc5c(O)c(N=Nc6ccc(OC)c(OC)c6)c(S(=O)(=O)O)cc5c4)ccc3c2O)cc1OC [Compound 39] | – | 2 | 3 | – | 12 | – | – | –
10 | COc1ccc(N=Nc2c(S(=O)(=O)O)cc3cc(NC(=O)Nc4ccc5c(O)c(N=Nc6ccc(OC)nc6OC)c(S(=O)(=O)O)cc5c4)ccc3c2O)c(OC)n1 [Compound 40] | – | > 3 | > 3 | – | 31 | – | – | –
11 | O=C(Nc1ccc2c(O)c(N=Nc3ccc(Br)cc3Br)c(S(=O)(=O)O)cc2c1)Nc1ccc2c(O)c(N=Nc3ccc(Br)cc3Br)c(S(=O)(=O)O)cc2c1 [Compound 41] | – | > 20 | > 20 | – | 66 | – | – | –
12 | CCOC(=O)c1ccccc1N=Nc1c(S(=O)(=O)O)cc2cc(NC(=O)Nc3ccc4c(O)c(N=Nc5ccccc5C(=O)OCC)c(S(=O)(=O)O)cc4c3)ccc2c1O [Compound 42] | – | > 3 | > 3 | – | 47 | – | – | –
13 | CCOC(=O)c1cccc(N=Nc2c(S(=O)(=O)O)cc3cc(NC(=O)Nc4ccc5c(O)c(N=Nc6cccc(C(=O)OCC)c6)c(S(=O)(=O)O)cc5c4)ccc3c2O)c1 [Compound 43] | – | > 20 | > 20 | – | 52 | – | – | –
14 | O=C(Nc1ccc2c(O)c(N=Nc3cccc([N+](=O)[O-])c3)c(S(=O)(=O)O)cc2c1)Nc1ccc2c(O)c(N=Nc3cccc([N+](=O)[O-])c3)c(S(=O)(=O)O)cc2c1 [Compound 45] | – | – | – | – | 2.8 | > 3 | > 3 | –
15 | O=C(Nc1ccc2c(O)c(N=Nc3ccc([N+](=O)[O-])cc3)c(S(=O)(=O)O)cc2c1)Nc1ccc2c(O)c(N=Nc3ccc([N+](=O)[O-])cc3)c(S(=O)(=O)O)cc2c1 [Compound 46] | – | – | – | – | 4.6 | > 3 | > 3 | –
16 | COC(=O)c1ccc(N=Nc2c(S(=O)(=O)O)cc3cc(NC(=O)Nc4ccc5c(O)c(N=Nc6ccc(C(=O)OC)cc6I)c(S(=O)(=O)O)cc5c4)ccc3c2O)c(I)c1 [Compound 47] | – | > 3 | > 3 | – | 2 | – | – | –

Row | Structure (SMILES) | IC50 [1] [µM] | IC50 (HIV integrase [2]; [4]) [µM] | IC50 (HIV integrase [3]; [5]) [µM] | conclusion of cell-based anti-HIV (XTT) assays and reverse transcriptase (RT) assays (HIV) | remaining activity at 10 µM [1, 6] [%] | IC50 (HIV integrase [2]; [7]) [µM] | IC50 (HIV integrase [3]; [8]) [µM] | remaining activity at 10 µM [1] [%]
17 | O=C(Nc1ccc2c(O)c(N=Nc3cccc4c(=O)[nH][nH]c(=O)c34)c(S(=O)(=O)O)cc2c1)Nc1ccc2c(O)c(N=Nc3cccc4c(=O)[nH][nH]c(=O)c34)c(S(=O)(=O)O)cc2c1 [Compound 49] | – | 2 | 1 | – | 1 | – | – | –
18 | COc1cc(C(=O)O)c(N=Nc2c(S(=O)(=O)O)cc3cc(NC(=O)Nc4ccc5c(O)c(N=Nc6c(C(=O)O)cc(OC)c(OC)c6OC)c(S(=O)(=O)O)cc5c4)ccc3c2O)c(OC)c1OC [Compound 50] | – | 2 | 2 | – | 1.3 | – | – | –
19 | O=C(Nc1ccc2c(O)c(N=Nc3cc(C(=O)O)cc(C(=O)O)c3)c(S(=O)(=O)O)cc2c1)Nc1ccc2c(O)c(N=Nc3cc(C(=O)O)cc(C(=O)O)c3)c(S(=O)(=O)O)cc2c1 [Compound 51] | – | 0.5 | 0.9 | – | 1.1 | – | – | –
20 | O=C(Nc1ccc2c(O)c(N=Nc3c(Cl)cc(C(=O)O)cc3Cl)c(S(=O)(=O)O)cc2c1)Nc1ccc2c(O)c(N=Nc3c(Cl)cc(C(=O)O)cc3Cl)c(S(=O)(=O)O)cc2c1 [Compound 52] | – | 0.2 | 0.5 | – | 1.3 | – | – | –
21 | Cc1cc(C(=O)O)ccc1N=Nc1c(S(=O)(=O)O)cc2cc(NC(=O)Nc3ccc4c(O)c(N=Nc5ccc(C(=O)O)cc5C)c(S(=O)(=O)O)cc4c3)ccc2c1O [Compound 53] | 0.6 | 0.5 | 2 | active or moderately active | – | – | – | –
22 | COc1cc(C(=O)O)ccc1N=Nc1c(S(=O)(=O)O)cc2cc(NC(=O)Nc3ccc4c(O)c(N=Nc5ccc(C(=O)O)cc5OC)c(S(=O)(=O)O)cc4c3)ccc2c1O [Compound 54] | – | 4 | 2 | active or moderately active | 0.6 | – | – | –
23 | Cc1ccc(CO)cc1N=Nc1c(S(=O)(=O)O)cc2cc(NC(=O)Nc3ccc4c(O)c(N=Nc5cc(CO)ccc5C)c(S(=O)(=O)O)cc4c3)ccc2c1O [Compound 55] | – | > 3 | > 3 | – | 24 | – | – | –
24 | COC(=O)/C=C/c1ccc(N=Nc2c(S(=O)(=O)O)cc3cc(NC(=O)Nc4ccc5c(O)c(N=Nc6ccc(/C=C/C(=O)OC)cc6)c(S(=O)(=O)O)cc5c4)ccc3c2O)cc1 [Compound 56] | – | > 3 | > 3 | – | 27 | – | – | –
25 | O=C(Nc1ccc2c(O)c(N=Nc3ccc4oc(=O)ccc4c3)c(S(=O)(=O)O)cc2c1)Nc1ccc2c(O)c(N=Nc3ccc4oc(=O)ccc4c3)c(S(=O)(=O)O)cc2c1 [Compound 59] | – | 2 | 1 | – | 2 | – | – | –
26 | COc1cc(N=Nc2c(S(=O)(=O)O)cc3cc(NC(=O)Nc4ccc5c(O)c(N=Nc6cc(OC)c(OC)cc6C(=O)O)c(S(=O)(=O)O)cc5c4)ccc3c2O)c(C(=O)O)cc1OC [Compound 60] | – | 0.8 | 2 | – | 6 | – | – | –
27 | O=C(Nc1ccc2c(O)c(N=Nc3ccc(CP(=O)(O)O)cc3)c(S(=O)(=O)O)cc2c1)Nc1ccc2c(O)c(N=Nc3ccc(CP(=O)(O)O)cc3)c(S(=O)(=O)O)cc2c1 [Compound 61] | – | > 3 | > 3 | – | – | – | – | 53
28 | O=C(O)/C=C/c1ccc(N=Nc2c(S(=O)(=O)O)cc3cc(NC(=O)C(=O)Nc4ccc5c(O)c(N=Nc6ccc(/C=C/C(=O)O)cc6)c(S(=O)(=O)O)cc5c4)ccc3c2O)cc1 [Compound 91] | – | – | – | active or moderately active | – | – | – | –
29 | COc1cc(C(=O)O)ccc1N=Nc1c(S(=O)(=O)O)cc2cc(NC(=O)C(=O)Nc3ccc4c(O)c(N=Nc5ccc(C(=O)O)cc5OC)c(S(=O)(=O)O)cc4c3)ccc2c1O [Compound 99] | – | – | 0.3 | active or moderately active | – | – | – | –
30 | Cc1cc(C(=O)O)ccc1N=Nc1c(S(=O)(=O)O)cc2cc(NC(=O)C(=O)Nc3ccc4c(O)c(N=Nc5ccc(C(=O)O)cc5C)c(S(=O)(=O)O)cc4c3)ccc2c1O [Compound 103] | – | < 1 | < 1 | active or moderately active | – | – | – | –
31 | Cc1cc2nc(N=Nc3c(S(=O)(=O)O)cc4cc(NC(=O)C(=O)Nc5ccc6c(O)c(N=Nc7nc8cc(C)c(C)cc8[nH]7)c(S(=O)(=O)O)cc6c5)ccc4c3O)[nH]c2cc1C [Compound 114] | – | 1 | 0.3 | – | – | – | – | –
